# Measurements from patent US20250312320A1, “METHOD AND TREATMENT FOR OSTEOARTHRITIS AND DISEASES OF CHONDROCYTE HYPERTROPHY” (The Royal Veterinary College, priority 2022, published 2025).
# “Also recorded” adds a separate entry of the source.
# Legend:
# [1] = tested on: primary canine articular chondrocytes; test: Primary canine articular chondrocytes in chondrogenesis and IL1β OA disease model: gene expression; type: cell-based; settings: 100 nM
# Protocol: Articular cartilage was isolated, placed into a petri dish containing phosphate buffer saline (PBS) supplemented with 2% Ab/Am (PBS-Ab/Am) and transferred to a laminar flow hood for processing. Cartilage shavings were minced using a sterile scalpel to approximately 1 mm^3 and washed in fresh PBS-Ab/Am by centrifugation at 500×g for 10 minutes. Supernatant was removed and the cartilage pellet resuspended in 5 ml TrypLE™ (Gibco) before incubation at 37° C. for 10 minutes with gentle agitation. Dissociated cartilage fragments were pelleted and washed to remove excess TrypLE and resuspended in DMEM-complete media (DMEM/F12 (Gibco), 1% Ab/Am, 10% FBS) supplemented with 2 mg/ml Collagenase Type II and incubated overnight at 37° C. with gentle agitation. The cartilage digest was pelleted, washed and subsequently resuspended in DMEM-complete. Released cells were counted using a haematocytometer and seeded at 10,000 cells per cm^2. The cultures were incubated at 37° C., 5% CO2 in a humidified incubator for 2 days before refreshing DMEM-complete every 2 days until confluency. For differentiation experiments, primary chondrocytes were differentiated in DMEM/F12 containing 2% FBS, 1% Ab/Am, 1× Insulin-Transferrin-Selenium premix, 10 ng/ml TGFβ3 (primary chondrocyte differentiation media).
# Additional experiments were carried out on primary chondrocytes (equine, canine and human) and ihMSC (TERT immortalised human mesenchymal stromal cell line) to investigate whether CDK8i protects from IL-1β induced degradation when added throughout the entirety of differentiation/IL-1β treatment. Briefly, ihMSCs were seeded at a density of 5×10^4 cells per 10 μl micromass and differentiated in ihMSC chondrogenic media (1% FBS, 1% Ab/Am, 1× Insulin-Transferrin-Selenium premix, 10 μM Y-27632, 100 nM dexamethasone, 50 μg/ml ascorbic acid, 20 ng/ml TGF-β3 (Peprotech)). Primary chondrocytes were seeded at 2.7×10^5 cells per 10 μl micromass and differentiated in primary chondrocyte differentiation media. All micromasses were differentiated for 12 days in the presence of 100 nM […] or DMSO. Some micromasses were processed for gene expression analysis/alcian blue staining on day 12, whilst others were treated with IL-β media (1% FBS, 1% Ab/Am, 10 ng/ml IL-1B) and CDK8i for 48-hours before processing for alcian blue staining/gene expression analysis on day 14 as previously described.
# [2] = tested on: STR/Ort mouse tibial subchondral bone; test: STR/Ort mouse 12 week study: microCT of subchondral bone; type: in vivo; settings: 5 mg/kg oral intermittently, 12 weeks, N=3/group
# Protocol: Following the pilot study, a larger in vivo study using the STR/Ort OA mouse model was conducted. […]
# On week 12 mice were sacrificed and hind limbs were fixed in 4% PFA for 48 hours before storing in 70% EtOH. Micro computed tomography (μCT) scans were carried out on hind limbs to analyse MSC2530818 effects on bone. Samples were wrapped in plastic film before scanning to prevent drying and scanned using the Skyscan 1172F (Bruker). Whole limbs were scanned with X-ray settings 50 kV and 200 μA, using an aluminum 0.5 mm filter, 960 ms exposure time and 5 μm pixel size. Scanned images were reconstructed into tomograms using NRecon 1.7.3.1 (Bruker) using a reconstruction threshold with a minimum value of −1000 and maximum value of 9486 in Hounsfield units and repositioned using Dataviewer 1.5.4 (Bruker). Tibial subchondral bone regions were manually segmented and analysed using CTAn 1.18.4 (Bruker).
smiles,measurement,setting,value
Cc1n[nH]c2ncc(C(=O)N3CCC[C@H]3c3ccc(Cl)cc3)cc12 [MSC2530818],"ACAN gene expression, increase vs DMSO","[1]; OA disease model (+IL1β), N=1",3 fold
same,"CNMD gene expression, increase vs DMSO","[1]; OA disease model (+IL1β), N=1",6 fold
same,"MATN3 gene expression, increase vs DMSO","[1]; OA disease model (+IL1β), N=1",6 fold
same,"SMOC2 gene expression, increase vs DMSO","[1]; OA disease model (+IL1β), N=1",2 fold
same,"COL2A1 gene expression, increase vs DMSO","[1]; OA disease model (+IL1β), ns",13 fold
same,"TIMP4 gene expression, increase vs DMSO","[1]; OA disease model (+IL1β), ns",1.1 fold
same,"ACAN gene expression, increase vs DMSO","[1]; chondrogenic (−IL1β), N=1",2 fold
same,"CNMD gene expression, increase vs DMSO","[1]; chondrogenic (−IL1β), N=1",7 fold
same,"COL2A1 gene expression, increase vs DMSO","[1]; chondrogenic (−IL1β), N=1",5 fold
same,"MATN3 gene expression, increase vs DMSO","[1]; chondrogenic (−IL1β), N=1",2 fold
same,"SMOC2 gene expression, increase vs DMSO","[1]; chondrogenic (−IL1β), N=1",2 fold
same,"TIMP4 gene expression, increase vs DMSO","[1]; chondrogenic (−IL1β), N=1",4 fold
same,"ADAMTS5 gene expression, reduction vs DMSO","[1]; disease model (+IL1β), ns",1.4 fold
same,subchondral bone surface area vs DMSO,[2],did not observe an alteration; also recorded: no difference
same,subchondral bone surface density vs DMSO,[2],did not observe an alteration; also recorded: no difference
same,subchondral bone volume/total volume (BV/TV) vs DMSO,[2],did not observe an alteration; also recorded: no difference
